In patent US7713690B1, “Luminous bacteria and methods for the isolation, identification and quantitation of toxicants” (priority 1991, dated 2010):

How the values were obtained:
Vibrio fischeri [1] = assay: Inhibition of luminescence of luminescent bacteria (general statements); type: cell-based
Vibrio fischeri [2] = assay: Metals spotted on chromatography paper sheet, dried, exposed to luminescent bacteria; type: cell-based; conditions: no chromatography separation
From the text: Upon spotting of the various metals along one side of a chromatography paper sheet, the sample spots were allowed to dry. Upon drying, the spotted sheets were exposed to the luminescent bacteria Vibrio fischeri.

Compound	inhibition of luminescence of Vibrio fischeri (Vibrio fischeri [1])	visualization of heavy metal salts by luminescent bacteria (Vibrio fischeri [2])
[Ca+2] [calcium ion]	Neither does the luminescence of the Vibrio fischeri appear to be immediately inhibited	
[Cd] [cadmium]		able to visualize the presence
lead		able to visualize the presence
mercury		able to visualize the presence
